Reference: patent US9062124B2, “GIP-based mixed agonists for treatment of metabolic disorders and obesity” (priority 2008, dated 2015)
Entries after “also recorded” stand apart in the source; their conditions may differ. Where two headings read alike, the source gives them in different places. Where a SMILES comes first, the peptide text is derived from it. Bridges are numbered along the chain shown (N, C = ends). Where no end group is shown, it is not given here. [ ]: non-standard residue; d: D form. PEG 40 kDa = PEG (40 kDa) covalently attached to Cys; Aib = CC(C)(N)C(=O)O

Tests used:
Type in all cases: cell-based
glucagon receptor = target: T1, glucagon receptor (Homo sapiens, UniProt P47871); assay: cAMP synthesis functional assay (firefly luciferase reporter in HEK293 cells), glucagon receptor
T1 construct: expressed in transfected cells; host or cells: HEK293

GIP receptor = target: T2, GIP receptor (Homo sapiens, UniProt P48546); assay: cAMP synthesis functional assay (firefly luciferase reporter in HEK293 cells), GIP receptor
T2 construct: expressed in transfected cells; host or cells: HEK293
T2 sequence (P48546 22-466): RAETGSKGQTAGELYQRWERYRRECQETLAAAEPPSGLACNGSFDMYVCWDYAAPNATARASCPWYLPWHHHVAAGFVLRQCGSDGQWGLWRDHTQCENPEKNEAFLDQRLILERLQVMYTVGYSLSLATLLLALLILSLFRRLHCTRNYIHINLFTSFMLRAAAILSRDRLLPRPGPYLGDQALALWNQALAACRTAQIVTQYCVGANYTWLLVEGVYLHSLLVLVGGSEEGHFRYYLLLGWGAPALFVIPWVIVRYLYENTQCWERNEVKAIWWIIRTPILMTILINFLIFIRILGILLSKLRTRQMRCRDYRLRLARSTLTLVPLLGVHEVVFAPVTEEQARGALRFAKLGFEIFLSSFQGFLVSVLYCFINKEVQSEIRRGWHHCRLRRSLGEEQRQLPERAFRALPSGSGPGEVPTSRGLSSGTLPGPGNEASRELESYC

GLP-1 receptor = target: T3, GLP-1 receptor (Homo sapiens, UniProt P43220); assay: cAMP synthesis functional assay (firefly luciferase reporter in HEK293 cells), GLP-1 receptor
T3 construct: expressed in transfected cells; host or cells: HEK293

[1] = tested on: glucagon receptor, GLP-1 receptor or GIP receptor; assay: Agonist profile across receptors assigned from the cAMP reporter assay data; settings: assigned from the in vitro EC50 data of Tables 1-4
[2] = Glucagon Receptor EC50, cAMP luciferase reporter assay as in Example 16
[3] = relative to the standard (Std.) EC50 of the same run
[4] = GLP-1 Receptor EC50, cAMP luciferase reporter assay as in Example 16
[5] = Table 1, relative to the native hormone of the indicated receptor

T1 sequence (P47871 26-477): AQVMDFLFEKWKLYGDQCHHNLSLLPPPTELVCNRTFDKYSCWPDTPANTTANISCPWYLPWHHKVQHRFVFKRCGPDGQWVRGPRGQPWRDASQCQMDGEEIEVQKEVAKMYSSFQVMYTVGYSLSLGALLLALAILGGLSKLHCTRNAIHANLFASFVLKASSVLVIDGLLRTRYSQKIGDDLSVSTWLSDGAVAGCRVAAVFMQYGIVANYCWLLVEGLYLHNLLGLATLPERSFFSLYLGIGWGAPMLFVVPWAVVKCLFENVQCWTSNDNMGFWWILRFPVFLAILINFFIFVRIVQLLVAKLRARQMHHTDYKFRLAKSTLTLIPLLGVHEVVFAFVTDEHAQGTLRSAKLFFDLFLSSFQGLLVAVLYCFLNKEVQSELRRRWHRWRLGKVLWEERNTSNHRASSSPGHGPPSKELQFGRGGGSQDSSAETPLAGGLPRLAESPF
T3 sequence (P43220 24-463, species assumed): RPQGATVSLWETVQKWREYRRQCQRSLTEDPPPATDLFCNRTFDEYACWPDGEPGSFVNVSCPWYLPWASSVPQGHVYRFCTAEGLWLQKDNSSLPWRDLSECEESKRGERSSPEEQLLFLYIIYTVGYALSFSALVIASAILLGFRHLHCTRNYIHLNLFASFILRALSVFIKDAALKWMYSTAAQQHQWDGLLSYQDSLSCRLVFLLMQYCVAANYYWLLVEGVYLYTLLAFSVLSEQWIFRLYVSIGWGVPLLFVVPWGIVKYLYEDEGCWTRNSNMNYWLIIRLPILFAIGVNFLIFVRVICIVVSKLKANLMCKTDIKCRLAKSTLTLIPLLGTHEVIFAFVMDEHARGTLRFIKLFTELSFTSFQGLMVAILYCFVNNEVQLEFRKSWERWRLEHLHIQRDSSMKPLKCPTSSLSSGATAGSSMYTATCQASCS

Row | Compound | Glucagon Receptor relative activity (glucagon receptor; [3]) [%] | GIP Receptor relative activity (GIP receptor; [3]) [%] | GLP-1 Receptor relative activity (GLP-1 receptor; [3]) [%] | receptor activity profile (glucagon / GLP-1 / GIP agonism) [1] | Glucagon Receptor relative activity (glucagon receptor; Table 2) [%] | GIP Receptor relative activity (GIP receptor; Table 2) [%] | GLP-1 Receptor relative activity (GLP-1 receptor; Table 2) [%] | other results
1 | CC[C@H](C)[C@H](NC(=O)[C@H](CO)NC(=O)[C@H](CCCCN)NC(=O)[C@H](CC(=O)O)NC(=O)[C@H](CO)NC(=O)[C@@H](NC(=O)[C@H](Cc1ccccc1)NC(=O)[C@@H](NC(=O)CNC(=O)[C@H](CCC(=O)O)NC(=O)C(C)(C)NC(=O)[C@@H](N)Cc1ccc(O)cc1)[C@@H](C)O)[C@@H](C)O)C(=O)N[C@@H](Cc1ccc(O)cc1)C(=O)N[C@@H](CC(C)C)C(=O)N[C@@H](CC(=O)O)C(=O)N[C@@H](CCCCN)C(=O)N[C@@H](CCC(N)=O)C(=O)N[C@@H](C)C(=O)N[C@@H](C)C(=O)NC(C)(C)C(=O)N[C@@H](CCC(=O)O)C(=O)N[C@@H](Cc1ccccc1)C(=O)N[C@H](C(=O)N[C@@H](CC(N)=O)C(=O)N[C@@H](Cc1c[nH]c2ccccc12)C(=O)N[C@@H](CC(C)C)C(=O)N[C@@H](CC(C)C)C(=O)N[C@@H](C)C(=O)NCC(N)=O)C(C)C [mt-285] (H-Y[Aib]EGTFTSDKSIYLDKQAA[Aib]EFVNWLLAG-NH2; N-terminus assumed) | 0.23 | 36.43 | 0.75 | exhibited activity at only the GIP receptor |  |  |  | EC50 (glucagon receptor; [2]): 12.6 nM; EC50 (GLP-1 receptor; [4]): 0.784 nM
2 | mt-295: linear peptide of Table 3 (Y[Aib]EGTFTSDYSIYLDKQAA[Aib]EFVNWLLAGGPSSGAPPPSC(PEG 40 kDa)-NH2) | 0.03 | 19.06 | 6.74 | exhibited activity at the GIP, GLP-1, and glucagon receptors |  |  |  | EC50 (GIP receptor; read-out: GIP Receptor EC50, cAMP luciferase reporter assay as in Example 16): 0.0577 nM; EC50 (GLP-1 receptor; read-out: GLP-1 Receptor EC50, cAMP luciferase reporter assay as in Example 16): 0.114 nM
3 | CCCCCCCCCCCCCCCC(=O)NCCCC[C@H](NC(=O)[C@H](CO)NC(=O)[C@@H]1CCCN1C(=O)[C@@H]1CCCN1C(=O)[C@@H]1CCCN1C(=O)[C@H](C)NC(=O)CNC(=O)[C@H](CO)NC(=O)[C@H](CO)NC(=O)[C@@H]1CCCN1C(=O)CNC(=O)CNC(=O)[C@H](C)NC(=O)[C@H](CC(C)C)NC(=O)[C@H](CC(C)C)NC(=O)[C@H](Cc1c[nH]c2ccccc12)NC(=O)[C@H](CS)NC(=O)[C@@H](NC(=O)[C@H](Cc1ccccc1)NC(=O)[C@H](CCC(=O)O)NC(=O)C(C)(C)NC(=O)[C@H](C)NC(=O)[C@H](C)NC(=O)[C@H](CCC(N)=O)NC(=O)[C@H](CCCCN)NC(=O)[C@H](CC(=O)O)NC(=O)[C@H](CC(C)C)NC(=O)[C@H](Cc1ccc(O)cc1)NC(=O)[C@@H](NC(=O)[C@H](CO)NC(=O)[C@H](Cc1ccc(O)cc1)NC(=O)[C@H](CC(=O)O)NC(=O)[C@H](CO)NC(=O)[C@@H](NC(=O)[C@H](Cc1ccccc1)NC(=O)[C@@H](NC(=O)CNC(=O)[C@H](CCC(N)=O)NC(=O)C(C)(C)NC(=O)[C@@H](N)Cc1ccc(O)cc1)[C@@H](C)O)[C@@H](C)O)[C@@H](C)CC)C(C)C)C(N)=O [mt-287] | 277.54 | 117.20 | 94.35 | exhibited activity at the GIP, GLP-1, and glucagon receptors |  |  |  | EC50 (glucagon receptor; [2]): 0.0187 nM; EC50 (GIP receptor; GIP Receptor EC50, cAMP luciferase reporter assay as in Example 16): 0.0093 nM; EC50 (GLP-1 receptor; [4]): 0.0124 nM
4 | CC[C@H](C)[C@H](NC(=O)[C@H](CO)NC(=O)[C@H](Cc1ccc(O)cc1)NC(=O)[C@H](CC(=O)O)NC(=O)[C@H](CO)NC(=O)[C@@H](NC(=O)[C@H](Cc1ccccc1)NC(=O)[C@@H](NC(=O)CNC(=O)[C@H](CCC(N)=O)NC(=O)C(C)(C)NC(=O)[C@@H](N)Cc1ccc(O)cc1)[C@@H](C)O)[C@@H](C)O)C(=O)N[C@@H](Cc1ccc(O)cc1)C(=O)N[C@@H](CC(C)C)C(=O)N[C@@H](CC(=O)O)C(=O)N[C@@H](CCC(=O)O)C(=O)N[C@@H](CCC(N)=O)C(=O)N[C@@H](C)C(=O)N[C@@H](C)C(=O)NC(C)(C)C(=O)N[C@@H](CCC(=O)O)C(=O)N[C@@H](Cc1ccccc1)C(=O)N[C@H](C(=O)N[C@@H](CC(N)=O)C(=O)N[C@@H](Cc1c[nH]c2ccccc12)C(=O)N[C@@H](CC(C)C)C(=O)N[C@@H](CC(C)C)C(=O)N[C@@H](C)C(=O)NCC(=O)NCC(=O)N1CCC[C@H]1C(=O)N[C@@H](CO)C(=O)N[C@@H](CO)C(=O)NCC(=O)N[C@@H](C)C(=O)N1CCC[C@H]1C(=O)N1CCC[C@H]1C(=O)N1CCC[C@H]1C(=O)N[C@@H](CO)C(=O)N[C@@H](CS)C(N)=O)C(C)C [mt-251] (H-Y[Aib]QGTFTSDYSIYLDEQAA[Aib]EFVNWLLAGGPSSGAPPPSC-NH2; N-terminus assumed) |  |  |  | exhibited activity of a GLP-1/GIP co-agonist | 1.52 | 57.58 | 140.00 | 
5 | mt-179: glucagon analog peptide, C-terminal amide; called GIP/glucagon co-agonist and triagonist (Y[Aib]QGTFISDYSIYLDEQAAKEFVC(PEG 40 kDa)WLLAG-NH2; lactam 16-20) |  |  |  | exemplary GLP-1/GIP/glucagon triagonist peptides |  |  |  | Glucagon Receptor relative activity (glucagon receptor; [5]): 2.92%; EC50 (glucagon receptor; read-out: Glucagon Receptor EC50, Table 1): 1.27 nM; GIP Receptor relative activity (GIP receptor; [5]): 3.74%; EC50 (GIP receptor; read-out: GIP Receptor EC50, Table 1): 0.473 nM; GLP-1 Receptor relative activity (GLP-1 receptor; [5]): 7.50%; EC50 (GLP-1 receptor; read-out: GLP-1 Receptor EC50, Table 1): 0.26 nM
6 | mt-249: linear peptide lacking a lactam bridge, AIB at position 16 and/or 20 (Y[Aib]QGTFTSDYSIYLD[Aib]QAAQEFVNWLLAGGPSSGAPPPSC(PEG 40 kDa)-NH2) |  |  |  | exhibited activities of glucagon/GLP-1/GIP triagonists | 0.59 | 0.63 | 2.56 | EC50 (glucagon receptor; read-out: Glucagon Receptor EC50, Table 2, linear peptides with AIB at position 16 and/or 20): 10.3 nM; EC50 (GIP receptor; read-out: GIP Receptor EC50, Table 2): 2.71 nM; EC50 (GLP-1 receptor; read-out: GLP-1 Receptor EC50, Table 2): 0.391 nM
7 | CC[C@H](C)[C@H](NC(=O)[C@H](CO)NC(=O)[C@H](Cc1ccc(O)cc1)NC(=O)[C@H](CC(=O)O)NC(=O)[C@H](CO)NC(=O)[C@@H](NC(=O)[C@H](Cc1ccccc1)NC(=O)[C@@H](NC(=O)CNC(=O)[C@H](CCC(N)=O)NC(=O)C(C)(C)NC(=O)[C@@H](N)Cc1ccc(O)cc1)[C@@H](C)O)[C@@H](C)O)C(=O)N[C@@H](Cc1ccc(O)cc1)C(=O)N[C@@H](CC(C)C)C(=O)N[C@@H](CC(=O)O)C(=O)N[C@@H](CCCCN)C(=O)N[C@@H](CCC(N)=O)C(=O)N[C@@H](C)C(=O)N[C@@H](C)C(=O)NC(C)(C)C(=O)N[C@@H](CCC(=O)O)C(=O)N[C@@H](Cc1ccccc1)C(=O)N[C@H](C(=O)N[C@@H](CC(N)=O)C(=O)N[C@@H](Cc1c[nH]c2ccccc12)C(=O)N[C@@H](CC(C)C)C(=O)N[C@@H](CC(C)C)C(=O)N[C@@H](C)C(=O)NCC(=O)NCC(=O)N1CCC[C@H]1C(=O)N[C@@H](CO)C(=O)N[C@@H](CO)C(=O)NCC(=O)N[C@@H](C)C(=O)N1CCC[C@H]1C(=O)N1CCC[C@H]1C(=O)N1CCC[C@H]1C(=O)N[C@@H](CO)C(=O)N[C@@H](CS)C(N)=O)C(C)C [mt-252] | 13.17 | 146.15 | 116.67 | exhibited activities of glucagon/GLP-1/GIP triagonists; also recorded: exhibited activity at the GIP, GLP-1, and glucagon receptors | 13.17 | 146.15 | 116.67 | EC50 (glucagon receptor; Glucagon Receptor EC50, nM, Table 2, linear peptides with AIB at position 16 and/or 20): 0.319 nM; EC50 (GIP receptor; GIP Receptor EC50, nM, Table 2): 0.013 nM; EC50 (GLP-1 receptor; GLP-1 Receptor EC50, nM, Table 2): 0.018 nM
